The source made the active and inactive calls. The rule behind the calls is not given here.
Tests used:
[1] = test system: MC3T3-E1; experiment: Osteogenic activity in mouse MC3T3-E1 cells assessed as increase in ALP activity at 30 uM measured after 4 days relative to control; assay type: functional
[2] = test system: MC3T3-E1; experiment: Osteogenic activity in mouse MC3T3-E1 cells assessed as increase in mineralization at 30 uM measured after 10 days by alizarin red S staining based assay; assay type: functional, cell-based
[3] = test system: MC3T3-E1; experiment: Cytotoxicity against mouse MC3T3-E1 cells assessed as cell number at 30 uM measured after 4 days by WST-8 assay relative to control; assay type: cell-based; settings: mc3t3-e1, 96 h
[4] = test system: MC3T3-E1; experiment: Osteogenic activity in mouse MC3T3-E1 cells assessed as increase in mineralization at 30 uM measured after 10 days in presence of BMP2 inhibitor noggin by alizarin red S staining based assay; assay type: functional, cell-based
[5] = test system: MC3T3-E1; experiment: Osteogenic activity in mouse MC3T3-E1 cells assessed as increase in mineralization at 30 uM measured after 10 days in presence of type-1 BMP receptor kinase inhibitor LDN-193189 by alizarin red S staining based assay; assay type: functional, cell-based
[6] = test system: RAW264; experiment: Inhibition of RANKL-stimulated osteoclastogenesis in mouse RAW264 cells assessed as reduction in TRAP activity at 20 uM measured after 72 hrs by microscopic analysis; assay type: functional, cell-based
[7] = species on record: Mus musculus; experiment: Activation of BMP signaling pathway in mouse MC3T3-E1 cells assessed as increase in Runx2 mRNA expression after 2 days by SYBR green-dye based RT-PCR method; assay type: cell-based
[8] = species on record: Mus musculus; experiment: Activation of BMP signaling pathway in mouse MC3T3-E1 cells assessed as increase in Osterix mRNA expression after 2 days by SYBR green-dye based RT-PCR method; assay type: cell-based
[9] = species on record: Mus musculus; experiment: Activation of BMP signaling pathway in mouse MC3T3-E1 cells assessed as increase in Alpl mRNA expression after 2 days by SYBR green-dye based RT-PCR method; assay type: cell-based
[10] = species on record: Mus musculus; experiment: Activation of BMP signaling pathway in mouse MC3T3-E1 cells assessed as increase in Bglap mRNA expression after 2 days by SYBR green-dye based RT-PCR method; assay type: cell-based
[11] = species on record: Mus musculus; experiment: Activation of BMP signaling pathway in mouse MC3T3-E1 cells assessed as increase in Runx2 mRNA expression at 10 uM after 2 days by SYBR green-dye based RT-PCR method relative to control; assay type: cell-based
[12] = species on record: Mus musculus; experiment: Activation of BMP signaling pathway in mouse MC3T3-E1 cells assessed as increase in Osterix mRNA expression at 10 uM after 2 days by SYBR green-dye based RT-PCR method relative to control; assay type: cell-based
[13] = species on record: Mus musculus; experiment: Activation of BMP signaling pathway in mouse MC3T3-E1 cells assessed as increase in Alpl mRNA expression at 10 uM after 2 days by SYBR green-dye based RT-PCR method relative to control; assay type: cell-based
[14] = species on record: Mus musculus; experiment: Activation of BMP signaling pathway in mouse MC3T3-E1 cells assessed as increase in Bglap mRNA expression at 10 uM after 2 days by SYBR green-dye based RT-PCR method relative to control; assay type: cell-based
[15] = molecular target: T1, MAP kinase p38 (Mus musculus) (UniProt P47811+O08911+Q9WUI1+Q9Z1B7); experiment: Induction of p38 MAPK phosphorylation in mouse MC3T3-E1 cells assessed as ratio of phosphorylated p38 to unphosphorylated p38 protein level at 30 uM measured after 5 mins by Western blot analysis relative to control; assay type: cell-based
[16] = molecular target: T2, SMAD1/5/9 (Mus musculus) (UniProt P70340+P97454+Q9JIW5); experiment: Induction of Smad1/5/8 phosphorylation in mouse MC3T3-E1 cells assessed as ratio of phosphorylated Smad1/5/8 to actin beta protein level at 30 uM measured after 5 mins by Western blot analysis relative to control; assay type: cell-based
[17] = test system: MC3T3-E1; experiment: Osteogenic activity in mouse MC3T3-E1 cells assessed as increase in mineralization at 30 uM measured after 10 days in presence of p38 MAPK inhibitor SB203580 by alizarin red S staining based assay; assay type: functional, cell-based
[18] = test system: RAW264; experiment: Inhibition of RANKL-stimulated osteoclastogenesis in mouse RAW264 cells assessed as reduction in TRAP-positive multinucleated cells at 20 uM measured after 72 hrs by TRAP staining based microscopic analysis; assay type: functional, cell-based
[19] = molecular target: T1, MAP kinase p38 (Mus musculus); experiment: Induction of p38 MAPK phosphorylation in mouse MC3T3-E1 cells assessed as ratio of phosphorylated p38 to unphosphorylated p38 protein level at 30 uM measured after 15 mins by Western blot analysis relative to control; assay type: cell-based
[20] = molecular target: T1, MAP kinase p38 (Mus musculus); experiment: Induction of p38 MAPK phosphorylation in mouse MC3T3-E1 cells assessed as ratio of phosphorylated p38 to unphosphorylated p38 protein level at 30 uM measured after 30 mins by Western blot analysis relative to control; assay type: cell-based
[21] = molecular target: T2, SMAD1/5/9 (Mus musculus); experiment: Induction of Smad1/5/8 phosphorylation in mouse MC3T3-E1 cells assessed as ratio of phosphorylated Smad1/5/8 to actin beta protein level at 30 uM measured after 15 mins by Western blot analysis relative to control; assay type: cell-based
[22] = molecular target: T2, SMAD1/5/9 (Mus musculus); experiment: Induction of Smad1/5/8 phosphorylation in mouse MC3T3-E1 cells assessed as ratio of phosphorylated Smad1/5/8 to actin beta protein level at 30 uM measured after 30 mins by Western blot analysis relative to control; assay type: cell-based
[23] = test system: MC3T3-E1; experiment: Osteogenic activity in mouse MC3T3-E1 cells assessed as increase in mineralization at 0.1 to 60 uM measured after 10 days by alizarin red S staining based assay; assay type: functional, cell-based
[24] = test system: MC3T3-E1; experiment: Osteogenic activity in mouse MC3T3-E1 cells assessed as increase in ALP activity at 10 uM measured after 4 days relative to control; assay type: functional, cell-based
[25] = test system: MC3T3-E1; experiment: Osteogenic activity in mouse MC3T3-E1 cells assessed as increase in mineralization at 10 uM measured after 10 days by alizarin red S staining based assay; assay type: functional, cell-based
[26] = test system: MC3T3-E1; experiment: Osteogenic activity in mouse MC3T3-E1 cells assessed as increase in ALP activity at 60 uM measured after 4 days relative to control; assay type: functional
[27] = test system: MC3T3-E1; experiment: Osteogenic activity in mouse MC3T3-E1 cells assessed as increase in mineralization at 60 uM measured after 10 days by alizarin red S staining based assay; assay type: functional, cell-based
[28] = test system: MC3T3-E1; experiment: Cytotoxicity against mouse MC3T3-E1 cells assessed as cell number at 60 uM measured after 4 days by WST-8 assay relative to control; assay type: cell-based; settings: mc3t3-e1, 96 h

SMILES: CCc1ccccc1/C=C/c1cc(OC)cc(=O)o1
- Activity [1]: inactive
- Activity [2]: inactive
- fold change (FC) [3]: 0.85 to 1.25

SMILES: COc1cc(/C=C/c2ccc(C(F)(F)F)cc2)oc(=O)c1
- fold change (FC) [1]: 1.32 - 2.87
- Activity [2]: Active
- fold change (FC) [3]: 0.85 to 1.25

SMILES: COc1cc(/C=C/c2ccc(Cl)cc2)oc(=O)c1
- fold change (FC) [1]: 1.32 - 2.87
- Activity [2]: Active
- fold change (FC) [3]: 0.85 to 1.25

SMILES: C#Cc1ccc(/C=C/c2cc(OC)cc(=O)o2)cc1
- fold change (FC) [1]: 1.32 - 2.87
- Activity [2]: Active
- fold change (FC) [3]: 0.85 to 1.25

SMILES: COc1cc(/C=C/c2cccc(C)c2)oc(=O)c1
- Activity [1]: Active
- Activity [2]: Active
- fold change (FC) [3]: 0.85 to 1.25

SMILES: COc1cc(/C=C/c2ccc(F)cc2)oc(=O)c1
- Activity [1]: inactive
- Activity [2]: inactive
- fold change (FC) [3]: 0.85 to 1.25

SMILES: CCc1ccc(/C=C/c2cc(OC)cc(=O)o2)cc1
- Activity [4]: inactive
- Activity [5]: inactive
- inhibition [6]: Active
- fold change (FC) [1]: 1.32 - 2.87
- Activity [2]: Active
- fold change (FC) [3]: 0.85 to 1.25
- Activity [7]: Dose-dependent effect
- Activity [8]: Dose-dependent effect
- Activity [9]: Dose-dependent effect
- Activity [10]: Dose-dependent effect
- fold change (FC) [11]: 1.5
- fold change (FC) [12]: 2.61
- fold change (FC) [13]: 2.23
- fold change (FC) [14]: 1.92
- Ratio [15]: 1.8
- Ratio [16]: 1.1
- Activity [17]: inactive
- inhibition [18]: Active
- Ratio [19]: 1.7
- Ratio [20]: 1.2
- Ratio [21]: 1
- Ratio [22]: 1

SMILES: COc1cc(/C=C/C2CCCC2)oc(=O)c1
- Activity [1]: inactive
- Activity [2]: inactive
- fold change (FC) [3]: 0.85 to 1.25

SMILES: CCCOc1cc(/C=C/c2ccccc2)oc(=O)c1
- Activity [2]: inactive
- Activity [23]: inactive

SMILES: COc1cc(/C=C/c2ccccc2)oc(=O)c1C
- Activity [2]: inactive
- Activity [23]: inactive
- fold change (FC) [3]: 0.85 to 1.25

SMILES: COc1cc(/C=C/C2CC2)oc(=O)c1
- Activity [1]: inactive
- Activity [2]: inactive
- fold change (FC) [3]: 0.85 to 1.25

SMILES: COc1cc(/C=C/c2ccc(C)cc2)oc(=O)c1
- Activity [1]: Active
- Activity [2]: Active
- fold change (FC) [3]: 0.85 to 1.25

SMILES: CCCCc1ccc(/C=C/c2cc(OC)cc(=O)o2)cc1
- Activity [4]: inactive
- Activity [5]: inactive
- inhibition [6]: Active
- Activity [1]: Active
- Activity [2]: Active
- Activity [24]: Active
- Activity [25]: Active
- fold change (FC) [3]: 0.85 to 1.25
- Activity [7]: Dose-dependent effect
- Activity [8]: Dose-dependent effect
- Activity [9]: Dose-dependent effect
- Activity [10]: Dose-dependent effect
- fold change (FC) [11]: 1.42
- fold change (FC) [12]: 2.41
- fold change (FC) [13]: 2.09
- fold change (FC) [14]: 1.33
- Ratio [15]: 1.6
- Ratio [16]: 1.1
- Activity [17]: inactive
- inhibition [18]: Active
- Ratio [19]: 1.5
- Ratio [20]: 1.1
- Ratio [21]: 1.1
- Ratio [22]: 1.1

SMILES: COc1ccc(/C=C/c2cc(OC)cc(=O)o2)cc1 [YANGONIN]
- Activity [1]: inactive
- Activity [2]: inactive
- fold change (FC) [3]: 0.85 to 1.25

SMILES: COc1cc(/C=C/c2ccc(C(C)(C)C)cc2)oc(=O)c1
- Activity [24]: Active
- Activity [25]: Active
- fold change (FC) [3]: 0.85 to 1.25

SMILES: CCOc1cc(/C=C/c2ccccc2)oc(=O)c1
- Activity [2]: inactive
- Activity [23]: inactive
- fold change (FC) [3]: 0.85 to 1.25

SMILES: CCOc1ccc(/C=C/c2cc(OC)cc(=O)o2)cc1
- fold change (FC) [1]: 1.32 - 2.87
- Activity [2]: Active
- fold change (FC) [3]: 0.85 to 1.25

SMILES: COc1cc(/C=C/C2CCCCC2)oc(=O)c1
- fold change (FC) [1]: 1.32 - 2.87
- Activity [2]: Active
- fold change (FC) [3]: 0.85 to 1.25

SMILES: COc1cc(/C=C/c2ccccc2)oc(=O)c1 [DESMETHOXYYANGONIN]
- inhibition [6]: inactive
- fold change (FC) [26]: 1.25
- Activity [27]: Active
- Activity [23]: Active
- fold change (FC) [3]: 0.85 to 1.25
- fold change (FC) [28]: 0.85 to 1.25

SMILES: COc1cc(/C=C/c2ccsc2)oc(=O)c1
- Activity [1]: inactive
- Activity [2]: inactive
- fold change (FC) [3]: 0.85 to 1.25

SMILES: CCCc1ccc(/C=C/c2cc(OC)cc(=O)o2)cc1
- fold change (FC) [3]: 0.85 to 1.25

SMILES: COc1cc(/C=C/c2ccccc2C)oc(=O)c1
- Activity [1]: Active
- Activity [2]: Active
- fold change (FC) [3]: 0.85 to 1.25

SMILES: CC(C)Oc1ccc2c(=O)c(-c3ccccc3)coc2c1
- inhibition [6]: Active

SMILES: CCc1cccc(/C=C/c2cc(OC)cc(=O)o2)c1
- Activity [1]: Active
- Activity [2]: Active
- fold change (FC) [3]: 0.85 to 1.25
